Measurements: patent US20250032383A1, “PERSONAL CARE COMPOSITION” (Conopco, Inc., d/b/a UNILEVER, priority 2021, published 2025)

System: MelaKuits® living skin equivalent models
Test: skin brightening efficacy in UVB-irradiated living skin equivalent models, lightness (L*) by DSM II Color Meter
Format: cell-based
Description: The skin brightening efficacy were evaluated by using MelaKuits® living skin equivalent models (Biocell, Xi'an, China). A series of identical living skin equivalent models were constructed by following manufacturer's instruction. After the models were constructed, the models were irradiated by UVB with an energy density of 50 mJ/cm^2, followed by culturing in fresh medium with or without actives for one day. Such irradiating and culturing process were repeated by using refreshed same medium for seven times. The lightness (L*) of each model were measured by using a DSM II Color Meter. The measurements of lightness were repeated at least three times. Similar experiments were conducted as that in Example 1 except that niacinamide was used and different batch of live equivalent models were used. The original lightness of the live equivalent models was different from that in Example 1.

Compound: CCCCCCC(O)CCCCCCCCCCC(=O)O (stereo not drawn) [12-HSA, 12-hydroxystearic acid]
- Average lightness (L*) (Example 1 batch, UVB 50 mJ/cm^2, irradiating and culturing repeated seven times, 10 μM of 12-HSA in medium (UVB + medium only 32.4; blank control 43.4)): 35.2

Compound: NC(=O)c1cccnc1 [niacinamide, reference compound]
- Average lightness (L*) (Example 2, different batch of models, UVB, 3 wt % of niacinamide in medium (UVB + medium only 66.86; blank control 71.43)): 71.15

Compound: Lysine carboxymethyl cysteinate [LCC]
- improvement of the skin brightening efficacy of niacinamide (in words) (LCC 0.27 wt % added to 3 wt % niacinamide, Table 2): not capable of improving the skin brightening efficacy of niacinamide
